In patent publication US10806794B2, “Protease inhibitors having enhanced features” (priority 2008, dated 2020):
Where two headings read alike, the source gives them in different places.

Assays:
rat plasma proteins = experiment: Plasma protein binding by equilibrium dialysis, rat plasma; type: in vitro ADME; conditions: fraction unbound
Procedure: (§1) In assays to estimate binding of test compounds to plasma proteins, test compound solutions (5 μM) are prepared in buffer and species-specific plasma (final DMSO concentration 0.5%). The plasma-containing solution is added to one side of the membrane of an equilibrium dialysis system, and the plasma-free is added to the other side. Dialysis was allowed to reach equilibrium by incubation for two hours at 37° C. The concentration of compound on both sides of the membrane was measured using LC-MS/MS.

beagle dog hepatocytes = experiment: Metabolic stability in beagle dog hepatocytes; type: in vitro ADME; conditions: 0.1 uM
[1] = test system: monocyte-derived dendritic cells; experiment: Cytotoxicity in monocyte-derived dendritic cells (XTT); type: cell-based, human
From the text: Cell viability is directly proportional to the amount of reduced XTT product formed.

in vitro = in vitro ADME; conditions: dog, microsomes
From the text: Metabolic stability of test compounds was studied in dog liver microsomes.

human monocytes = experiment: Toxicity in human monocytes in the absence of viral infection
Procedure: Fresh human monocytes were infected with the BaL strain of HIV-1 in the presence of test compounds. After seven days in culture, HIV-1 replication was evaluated by measurement of HIV-1 viral capsid protein (p24) in the tissue culture supernatant (Table 7). […] A TI was calculated as described above using TC50 values derived from cell toxicity data in response to test compounds in the absence of viral infection.

HIV-1Ba-L = experiment: Anti-HIV-1 activity in monocyte-derived dendritic cells (reverse transcriptase activity); type: cell-based; conditions: dendritic cells
Procedure: Freshly separated human PBMCs from a single donor were suspended in DPBS at 4×10^6 cells/mL and incubated in a 75 cm^2 cell culture flask for 90 minutes at 37° C., 5% CO2. Non-adherent cells were removed by washing with DPBS. Differentiation to dendritic cells was induced by 7 day incubation in RPMI 1640 medium supplemented with 10% fetal bovine serum, 2 mmol/L L-glutamine, 25 mM HEPES, 100 Units/mL penicllin, 10 μg/mL streptomycin, 50 ng/mL recombinant human granulocyte-macrophage-colony stimulating factor (GM-CSF), and 50 ng/mL recombinant human Interleukin (IL)-4 at 37° C., 5% CO2. The cells were further incubated for two days in the same cytokine cocktail supplemented with 10 ng/mL lipopolysaccharide (LPS). The monocyte-derived dendritic cells were then suspended at 10×10^6 cells/mL in complete medium (RPMI 1640 medium supplemented with 10% fetal bovine serum, 2 mmol/L L-glutamine, 25 mM HEPES, 100 Units/mL penicllin, 10 μg/mL streptomycin) and infected for 2 h at 37 C, 5% CO2 with HIV-1Ba-L at MOI=50-150 TCID50. […] Compound diluted in complete medium was added to cells. After seven days in culture, HIV-1 replication was quantified by measuring HIV-1 reverse transcriptase activity in cell-free supernatants using a standard radioactive tritiated thymidine triphosphate (TTP) polymerization incorporation assay. For each reaction, 1 μL of TTP (1 Ci/mL) was combined with 4 μL of dH2O, 2.5 μL of poly rA and oligo dT (0.5 mg/mL and 1.7 Units/mL, respectively), and 2.5 μL reaction buffer (125 μL 1 mol/L EGTA, 125 μL dH2O, 125 μL 20% Triton X-100, 50 μL 1 mol/L Tris, pH 7.4, 50 μL 1 mol/L DTT, 40 μL 1 mol/L MgCl2), then 10 μL of the resulting mixture was combined with 15 µL of virus-containing supernatant in a round-bottom microtiter plate and the plate incubated at 37° C. in a humidified incubator for 90 minutes. Following incubation, 10 μL of the reaction volume was spotted onto a DEAD filter mat, then washed 5×5 min with 5% sodium phosphate buffer, 2×1 minute in distilled water, 2×1 minute in 70% ethanol, then air dried. The filter mat was incubated with Opti-Fluor O scintillation fluid, and radioactivity quantified using a Wallac 1450 Microbeta Trilux liquid scintillation counter.

CYP3A4 = CYP3A4 (Homo sapiens (Human), UniProt P08684); experiment: CYP450 inhibition in human liver microsomes: CYP3A4;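 also: incubation at 37 °C started by adding 1 mM NADPH, with formation of the probe metabolite measured via LC-MS/MS or fluorescent detection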
Sequence of CYP3A4 (P08684 whole entry): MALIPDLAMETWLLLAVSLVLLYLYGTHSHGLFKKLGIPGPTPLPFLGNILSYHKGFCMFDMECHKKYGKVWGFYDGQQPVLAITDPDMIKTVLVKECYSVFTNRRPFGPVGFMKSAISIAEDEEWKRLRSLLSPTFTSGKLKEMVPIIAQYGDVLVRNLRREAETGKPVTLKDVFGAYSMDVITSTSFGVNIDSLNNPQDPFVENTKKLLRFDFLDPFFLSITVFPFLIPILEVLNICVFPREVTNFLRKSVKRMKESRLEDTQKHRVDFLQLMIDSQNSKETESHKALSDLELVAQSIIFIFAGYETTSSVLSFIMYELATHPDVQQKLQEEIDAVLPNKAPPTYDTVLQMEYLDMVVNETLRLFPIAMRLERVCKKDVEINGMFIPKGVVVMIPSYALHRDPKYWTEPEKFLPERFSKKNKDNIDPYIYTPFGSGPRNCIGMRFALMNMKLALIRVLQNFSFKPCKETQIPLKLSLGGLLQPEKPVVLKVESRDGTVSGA

monkey plasma proteins = experiment: Plasma protein binding by equilibrium dialysis, monkey plasma; type: in vitro ADME; conditions: fraction unbound
Procedure: as §1

Caco-2 cells = experiment: Bi-directional permeability in Caco-2 monolayers; conditions: for Efflux ratio (B→A/A→B): Caco-2 monolayers; for A→B, ×10^−6: human, Caco-2
Procedure: Absorption properties of various compounds were measured using bi-directional permeability assays in Caco-2 cells. […] The efflux ratio is calculated as the ratio of the Papp(B→A)/Papp(A→B).

mouse plasma proteins = experiment: Plasma protein binding by equilibrium dialysis, mouse plasma; type: in vitro ADME; conditions: fraction unbound
Procedure: as §1

PBMCs = experiment: Toxicity in PBMCs cultured without virus (XTT)
[2] = test system: Sprague-Dawley rat hepatocytes; experiment: Metabolic stability in Sprague-Dawley rat hepatocytes; type: in vitro ADME; conditions: 0.1 uM
[3] = first determination, read-out: EC50 First
[4] = mean of three, read-out: Mean EC50
[5] = second determination, read-out: EC50 Second
[6] = third determination, read-out: EC50 Third
[7] = read-out: CYP3A4 IC50 Midazolam, probe substrate midazolam
[8] = read-out: CYP3A4 IC50 Testosterone, probe substrate testosterone

Row | Compound | Rat Plasma Protein Binding Fu ± SD (rat plasma proteins) | CLint ± SEM (beagle dog hepatocytes) [μL/min/10^6 cells] | t1/2 (beagle dog hepatocytes) [h] | TC50 [1] [nM] | Clint (in vitro) [μL/min/mg protein] | t1/2 (in vitro) [min] | TC50 (human monocytes) [nM] | EC50 (HIV-1Ba-L; [3]) [nM] | EC50 (HIV-1Ba-L; [4]) [nM] | EC50 (HIV-1Ba-L; [5]) [nM] | EC50 (HIV-1Ba-L; [6]) [nM] | IC50 (CYP3A4; [7]) [nM] | IC50 (CYP3A4; [8]) [nM] | Monkey Plasma Protein Binding Fu ± SD (monkey plasma proteins) | Efflux ratio (B→A/A→B) (Caco-2 cells) | A→B, ×10^−6 (Caco-2 cells) [cm/s] | Mouse Plasma Protein Binding Fu ± SD (mouse plasma proteins) | PBMC TC50 ± SD (PBMCs) [nM] | CLint ± SEM [2] [μL/min/10^6 cells] | t1/2 [2] [min]
1 | COCCOCCOCCOCCOCCOCCOC(=O)NC(C(=O)NC(Cc1ccccc1)C(O)CN(Cc1ccc(-c2ccccn2)cc1)NC(=O)C(NC(=O)OC)C(C)(C)C)C(C)(C)C (stereo not shown) [mono-mPEG6-Atazanavir] | 0.451 ± 0.0385 | 0.209 ± 0.000143 | 110.6 | >1000 | 67.1 | 20.7 | 130200 | 0.16 | 0.2 | 0.21 | 0.23 | 16700 | > 25000 | 0.598 ± 0.00839 | 68 | 0.11 | 0.159 ± 0.0167 | – | – | –
2 | COCCOC(=O)NC(C(=O)NC(Cc1ccccc1)C(O)CN(Cc1ccc(-c2ccccn2)cc1)NC(=O)C(NC(=O)OC)C(C)(C)C)C(C)(C)C (stereo not shown) [mono-mPEG1-Atazanavir] | 0.0793 ± 0.00541 | 31.1 ± 0.000512 | 0.742 | >1000 | – | – | 159100 | 0.16 | 0.183 | 0.25 | 0.14 | 2560 | 10400 | 0.246 ± 0.0239 | 26 | 1.25 | 0.0666 ± 0.00662 | 135900 | 82.5 ± 0.0100 | 16.8
3 | COCCOCCOCCOCCOCCOCCOCCOC(=O)NC(C(=O)NC(Cc1ccccc1)C(O)CN(Cc1ccc(-c2ccccn2)cc1)NC(=O)C(NC(=O)OC)C(C)(C)C)C(C)(C)C (stereo not shown) [mono-mPEG7-Atazanavir] | 0.255 ± 0.0778 | – | – | >1000 | – | – | 132200 | 0.13 | 4.03 | 11.7 | 0.25 | 20100 | > 25000 | 0.570 ± 0.0439 | 52 | 0.10 | 0.174 ± 0.00791 | 187200 | – | –
